The values that follow come from PMC11267565, “Glutathione-Based Photoaffinity Probe Identifies Caffeine as a Positive Allosteric Modulator of the Calcium-Sensing Receptor” (ACS Chemical Biology, 2024).

For test [1], the target named is T1, calcium-sensing receptor (CaSR) (Homo sapiens, UniProt P41180).
T1 sequence (P41180 20-1078): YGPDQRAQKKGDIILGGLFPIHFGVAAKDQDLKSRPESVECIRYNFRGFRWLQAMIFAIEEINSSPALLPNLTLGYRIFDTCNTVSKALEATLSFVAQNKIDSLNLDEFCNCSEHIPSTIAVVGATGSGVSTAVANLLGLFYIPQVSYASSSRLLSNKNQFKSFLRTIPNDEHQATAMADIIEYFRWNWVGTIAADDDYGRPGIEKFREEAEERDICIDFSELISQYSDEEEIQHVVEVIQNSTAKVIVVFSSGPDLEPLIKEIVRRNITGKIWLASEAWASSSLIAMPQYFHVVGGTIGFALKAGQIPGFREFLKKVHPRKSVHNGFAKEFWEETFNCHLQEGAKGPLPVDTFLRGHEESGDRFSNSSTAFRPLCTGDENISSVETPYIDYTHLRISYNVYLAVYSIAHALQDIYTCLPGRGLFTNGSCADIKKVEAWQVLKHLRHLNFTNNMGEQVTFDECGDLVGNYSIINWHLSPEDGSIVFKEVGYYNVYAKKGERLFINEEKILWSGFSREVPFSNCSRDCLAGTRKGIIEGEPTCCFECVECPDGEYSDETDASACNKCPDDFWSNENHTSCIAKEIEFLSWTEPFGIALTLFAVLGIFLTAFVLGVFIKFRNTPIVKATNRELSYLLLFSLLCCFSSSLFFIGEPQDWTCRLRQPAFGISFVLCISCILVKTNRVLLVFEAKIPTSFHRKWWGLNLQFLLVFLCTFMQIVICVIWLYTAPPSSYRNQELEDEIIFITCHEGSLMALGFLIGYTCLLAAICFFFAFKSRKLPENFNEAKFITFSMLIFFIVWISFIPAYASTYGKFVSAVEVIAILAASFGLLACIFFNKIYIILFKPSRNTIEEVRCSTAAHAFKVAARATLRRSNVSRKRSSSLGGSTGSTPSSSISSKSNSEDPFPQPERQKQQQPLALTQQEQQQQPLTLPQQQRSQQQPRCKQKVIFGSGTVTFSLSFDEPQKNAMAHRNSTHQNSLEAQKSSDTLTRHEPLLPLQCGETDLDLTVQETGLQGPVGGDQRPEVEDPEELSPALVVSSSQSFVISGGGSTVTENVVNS
Nature of the test: concentration-dependent competition with DAZ-G photo-conjugation in cells. More on the design: FLAG-CaSR. The format is cell-based.

In test [2] the target is T1, calcium-sensing receptor (CaSR). The test is described as follows: Cal-520 Ca2+ flux in HEK293-CaSR cells (EC50); competition with DAZ-G photo-conjugation; E837A and S170A mutants. The class given is cell-based. In general terms: Calcium flux is commonly read through the fluorescence of an indicator in the cells.

Turning to `N[C@@H](Cc1ccccc1)C(=O)O` [L-Phe], the “concentration-dependent competition with DAZ-G photo-conjugation in cells” value in test [1] is recorded as “L-Phe, a prototype ligand for ABS, induced concentration-dependent competition to DAZ-G”.

For `Cn1c(=O)c2c(ncn2C)n(C)c1=O` [caffeine], in test [2], the EC50 (as a rule, the midpoint of the concentration-response curve) is 3.35 µM.
